According to article PMC2652713, “Molecular Blocking of CD23 Supports Its Role in the Pathogenesis of Arthritis” (PLoS ONE, 2009):

What was measured:
human CD23 = assay: Flow cytometry, inhibition of IgE/anti-IgE-FITC binding to human CD23+ macrophages; conditions: p30A 10 µg/ml pre-incubation, IgE 10 µg/ml, anti-IgE-FITC 1 µg/ml
Experimental: Figure 1 Specific blockade of CD23 reactivity by p30A. Flow cytometry analysis showing the inhibition of (A) anti-CD23-FITC (20 µg/ml) or (B) IgE (10 µg/ml)/anti-IgE-FITC (1 µg/ml) binding to CD23^+ human PBL-derived macrophages (red lines) or following their pre-incubation with p30A peptides (10 µg/ml) (blue lines). (C) CD23 western blot was performed on total protein extract from à CD23^+ B-cell line. The detection with CD23-McAb followed the pre-incubation of the blot with or without p30A (10 µg/ml). Similar protein quantity (50 µg) was used for each western blot condition.

[1] = system: peritoneal macrophages of AIA rats; assay: Ex vivo cytokine release from peritoneal macrophages of treated AIA rats, ELISA; format: in vivo, rat, Female Lewis; conditions: cells collected 50 days post-immunization, 48 h culture, 4 rats
Experimental: AIA rats were treated either after (AIA+p30A) or before (p30A+AIA) the onset of symptoms. Treatment consisted of p30A (10 mg/rat) or hydrocortisone (HC, 30 mg/rat). Rat peritoneal macrophages were collected following 50 days post-immunization, washed and re-incubated in culture medium alone. Cell supernatants were collected 48 h later and cytokine levels were quantified. Macrophages from healthy rats were also incubated in similar conditions. Values are mean±s.d. of cells from 4 different rats.
Adjuvant arthritis was induced in six week-old animals by subcutaneous injection at the base of the tail of 300 µl containing 1.8 mg of inactivated Mycobacterium butyricum (Difco Laboratories, Detroit, MI) diluted in emulsion of 8 ml Vaseline, 1 ml polysorbate 80, and 1 ml PBS (Phosphate Buffer Saline, Eurobio). Rats were boosted one week later following the same procedure. Observation was conducted for up to 50 days following immunization for clinical signs of arthritis. Rats were divided in different groups of 8 rats. Groups were treated with five injections (every 2 days) of either p30A (10, 50 or 100 mg in a PBS solution), pCtl, hydrocortisone (Sigma Aldrich) or PBS solution. Injections were initiated two days after the appearance of first arthritic symptoms (therapeutic) or on the first day of immunization (preventive). […] Rats were sacrificed 50 days after AIA induction. Peritoneal macrophages were collected and incubated in culture medium alone for 48 h. Quantification of TNF-α and IL-1β in rat cell supernatants was performed using appropriate ELISA kits and according to manufacturer's recommendations (Biosource, Montrouge, France).

[2] = system: adjuvant-induced arthritis in rats; assay: Adjuvant-induced arthritis (AIA) clinical score in rats; format: in vivo, rat, Female Lewis
Experimental: Figure 6 Inhibition of in vitro and in vivo inflammatory responses in rats by p30A peptide. (A) Rat peritoneal macrophages were activated via CD23 antigens with/without p30A, L-NIL or pCtl. Cell supernatants were collected 48 h later and nitrite levels were quantified. Values are mean±s.d. of cells from 3 different rats. (B) Cumulative clinical score/rat obtained following 50 days post-immunization in all groups. AIA rats were treated either after or before (d0) the onset of symptoms. Treatment consisted of p30A, hydrocortisone (HC, 30 mg/rat)) or pCtl (100 mg/rat). Shown are means of cumulative score/rat±s.d. from 5 (HC) or 8 rats (other conditions). (C) Evolution of arthritis severity scores of adjuvant-induced arthritis (AIA) in rats treated with intracutaneous p30A or pCtl (100 mg/rat) or hydrocortisone (after the onset of clinical signs as illustrated by arrows (means from 8 rats, s.e.m.<20%). (D) Histopathologic analysis confirm p30A ability to decrease all components of AIA lesions: pannus formation and inflammation of the synovium (P), deformity of joint and bones (asterix), bone remodeling and destruction (arrowhead), bone neoformation (arrows) and cartilage destruction.
All animal procedures were performed in strict accordance with the guidelines issued by the European Economic Community “86/609”. Female Lewis rats (Janvier, Le Genest St Isle, France) were housed under standard laboratory conditions with free access to food and water. The temperature was kept at 22±2°C and a 12 hour light/dark schedule was maintained.
Adjuvant arthritis was induced in six week-old animals by subcutaneous injection at the base of the tail of 300 µl containing 1.8 mg of inactivated Mycobacterium butyricum (Difco Laboratories, Detroit, MI) diluted in emulsion of 8 ml Vaseline, 1 ml polysorbate 80, and 1 ml PBS (Phosphate Buffer Saline, Eurobio). Rats were boosted one week later following the same procedure. Observation was conducted for up to 50 days following immunization for clinical signs of arthritis. Rats were divided in different groups of 8 rats. Groups were treated with five injections (every 2 days) of either p30A (10, 50 or 100 mg in a PBS solution), pCtl, hydrocortisone (Sigma Aldrich) or PBS solution. Injections were initiated two days after the appearance of first arthritic symptoms (therapeutic) or on the first day of immunization (preventive). Evaluation of AIA severity was performed by two independent observers who where not aware of the study protocol. The severity of AIA in each paw was quantified daily using an ordinal clinical score measurement from 0 to 4 as follows: no signs of inflammation ( = 0); swelling alone (>2 fold paw diameter) ( = 1) or swelling/immobility ( = 2) of one paw; swelling ( = 3) or swelling/immobility ( = 4) of two paws. Weight evolution of rats was measured daily. Rats were sacrificed 50 days after AIA induction. Peritoneal macrophages were collected and incubated in culture medium alone for 48 h. Quantification of TNF-α and IL-1β in rat cell supernatants was performed using appropriate ELISA kits and according to manufacturer's recommendations (Biosource, Montrouge, France).

[3] = system: adjuvant-induced arthritis in rats; assay: Histopathologic analysis of AIA lesions; format: in vivo, rat, Female Lewis; conditions: 50 days after AIA induction
Experimental: Figure 6 Inhibition of in vitro and in vivo inflammatory responses in rats by p30A peptide. (A) Rat peritoneal macrophages were activated via CD23 antigens with/without p30A, L-NIL or pCtl. Cell supernatants were collected 48 h later and nitrite levels were quantified. Values are mean±s.d. of cells from 3 different rats. (B) Cumulative clinical score/rat obtained following 50 days post-immunization in all groups. AIA rats were treated either after or before (d0) the onset of symptoms. Treatment consisted of p30A, hydrocortisone (HC, 30 mg/rat)) or pCtl (100 mg/rat). Shown are means of cumulative score/rat±s.d. from 5 (HC) or 8 rats (other conditions). […]
Adjuvant arthritis was induced in six week-old animals by subcutaneous injection at the base of the tail of 300 µl containing 1.8 mg of inactivated Mycobacterium butyricum (Difco Laboratories, Detroit, MI) diluted in emulsion of 8 ml Vaseline, 1 ml polysorbate 80, and 1 ml PBS (Phosphate Buffer Saline, Eurobio). […] The severity of AIA in each paw was quantified daily using an ordinal clinical score measurement from 0 to 4 as follows: no signs of inflammation ( = 0); swelling alone (>2 fold paw diameter) ( = 1) or swelling/immobility ( = 2) of one paw; swelling ( = 3) or swelling/immobility ( = 4) of two paws. Weight evolution of rats was measured daily. […]

rat CD23+ macrophages = assay: IgE-mediated activation of rat CD23+ macrophages; format: cell-based
Experimental: Peptides were added one hour prior to cell activation.

[4] = treatment before onset of symptoms (p30A+AIA, 10 mg/rat)

FHENWPS [p30A]
block of IgE/anti-IgE-FITC binding (human CD23): block, on the one hand, the binding of IgE/anti-IgE-FITC to human CD23^+ macrophages | TNFα release ex vivo, therapeutic ([1]; treatment after onset of symptoms (AIA+p30A, 10 mg/rat)): dramatically reduced both IL-1β and TNFα levels | IL-1β release ex vivo, therapeutic ([1]; treatment after onset of symptoms (AIA+p30A, 10 mg/rat; HC 30 mg/rat)): dramatically reduced both IL-1β and TNFα levels | IL-1β release ex vivo, preventive [1, 4]: dramatically reduced both IL-1β and TNFα levels | TNFα release ex vivo, preventive [1, 4]: dramatically reduced both IL-1β and TNFα levels | cumulative clinical score vs non-treated rats ([2]; AIA rats, 50 days post-immunization, five intracutaneous doses every two days, 8 rats, p<0,0001): significantly improved the clinical course of AIA rats | decrease of arthritic scores compared with hydrocortisone ([2]; AIA rats, hydrocortisone 30 mg/rat): more efficient than hydrocortisone in decreasing arthritic scores | arthritic signs, dose-dependence ([2]; AIA rats, p30A 10, 50 or 100 mg, five injections every 2 days): decreased arthritic signs in rats in a dose-dependent manner | effectiveness after disease onset or for prevention ([2]; AIA rats, therapeutic or p30A-d0, p<0.0002): effective either after disease onset or for the prevention | prevention of severe clinical signs ([2]; p30A administered prior to disease induction): prevented the development of severe clinical signs in rats | clinical scores and bone destruction ([2]; rat model of arthritis): ameliorates clinical scores and prevent bone destruction in a dose dependent manner | duration of dose-dependent effect ([2]; rat model of chronic arthritis, indirectly supports stability of p30A in vivo): > one month | components of AIA arthritic lesions (pannus formation and synovium inflammation, joint/bone deformity, bone remodeling and destruction, bone neoformation, cartilage destruction) [3]: significantly decreased all components of AIA arthritic lesions | IgE-mediated activation of rat CD23+ macrophages (rat CD23+ macrophages): decreased IgE-mediated activation of both human and rat CD23^+ macrophages
